# Source: ChEMBL document CHEMBL1201862, “PubChem BioAssay data set” (2004)
#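 Values below derive from 48-hour exposures of cells grown in 96-well plates, with endpoints linearly interpolated between the two concentrations bracketing the appropriate inhibition level. Abbreviation: GI50, concentration required for 50% inhibition of growth.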 The source made the active and inactive calls. No stated cut-off is given here; in the data, active = GI50 up to about 1.1 µM and inactive = higher.
# Experiments:
# Experiment in all cases: inhibition of tumour cell growth, NCI panel, 48 h
# UO-31 = test system: UO-31
# TK-10 = test system: TK-10
# SF-295 = test system: SF-295
# 786-0 = test system: 786-0
# NCI-H460 = test system: NCI-H460
# SK-OV-3 = test system: SK-OV-3
# ACHN = test system: ACHN
# CAKI-1 = test system: CAKI-1
# SNB-19 = test system: SNB-19
# K562 = test system: K562
# BT-549 = test system: BT-549
# MOLT-4 = test system: MOLT-4
# KM12 = test system: KM12
# COLO 205 = test system: COLO 205
# SN12C = test system: SN12C
# SNB-75 = test system: SNB-75
# LOX IMVI = test system: LOX IMVI
# OVCAR-5 = test system: OVCAR-5
# MCF7 = test system: MCF7
# CCRF-CEM = test system: CCRF-CEM
Structure (SMILES),GI50 (UO-31),GI50 (TK-10),GI50 (SF-295),GI50 (786-0),GI50 (NCI-H460),GI50 (SK-OV-3),GI50 (ACHN),GI50 (CAKI-1),GI50 (SNB-19),GI50 (K562),GI50 (BT-549),GI50 (MOLT-4),GI50 (KM12),GI50 (COLO 205),GI50 (SN12C),GI50 (SNB-75),GI50 (LOX IMVI),GI50 (OVCAR-5),GI50 (MCF7),GI50 (CCRF-CEM)
CC(C)CC(NC=O)C(=O)NC(Cc1ccccc1)NC(=O)CNC(=O)C(C)NC(=O)C(N)Cc1ccc(O)cc1 (configuration not stated),> 100 µM (inactive),> 100 µM (inactive),> 100 µM (inactive),> 100 µM (inactive),> 100 µM (inactive),> 100 µM (inactive),> 100 µM (inactive),> 100 µM (inactive),> 100 µM (inactive),> 100 µM (inactive),> 100 µM (inactive),> 100 µM (inactive),> 100 µM (inactive),> 100 µM (inactive),> 100 µM (inactive),> 100 µM (inactive),> 100 µM (inactive),> 100 µM (inactive),> 100 µM (inactive),–
ClC1(c2ccccc2)c2ccc(Br)cc2-c2cc(Br)ccc21,15.5 µM (inactive),19 µM (inactive),17.9 µM (inactive),16.6 µM (inactive),14.3 µM (inactive),17.6 µM (inactive),16.1 µM (inactive),14.9 µM (inactive),16.9 µM (inactive),> 100 µM (inactive),17.2 µM (inactive),32.5 µM (inactive),19.4 µM (inactive),17.7 µM (inactive),18.6 µM (inactive),–,17.8 µM (inactive),17.3 µM (inactive),19 µM (inactive),34.6 µM (inactive)
O=C(CON1C(=O)c2ccccc2C1=O)c1ccccc1,21.3 µM (inactive),20.7 µM (inactive),> 100 µM (inactive),32.4 µM (inactive),> 100 µM (inactive),> 100 µM (inactive),> 100 µM (inactive),19.1 µM (inactive),> 100 µM (inactive),45.9 µM (inactive),> 100 µM (inactive),–,> 100 µM (inactive),56.4 µM (inactive),47.1 µM (inactive),97.5 µM (inactive),35.6 µM (inactive),> 100 µM (inactive),40.1 µM (inactive),–
CCOC(=O)/C(=C\NC(N)=S)C(=O)c1ccccc1,> 100 µM (inactive),> 100 µM (inactive),> 100 µM (inactive),> 100 µM (inactive),> 100 µM (inactive),> 100 µM (inactive),> 100 µM (inactive),> 100 µM (inactive),> 100 µM (inactive),–,> 100 µM (inactive),> 100 µM (inactive),> 100 µM (inactive),> 100 µM (inactive),> 100 µM (inactive),> 100 µM (inactive),> 100 µM (inactive),> 100 µM (inactive),> 100 µM (inactive),–
COc1ccc(C(=O)CC(c2ccccc2)[C@H]2C(c3ccc(OC)cc3)=Nc3c(nc(SC)n(C)c3=O)NC2c2ccccc2)cc1 (some centres not stated),–,> 100 µM (inactive),> 100 µM (inactive),> 100 µM (inactive),> 100 µM (inactive),> 100 µM (inactive),–,> 100 µM (inactive),> 100 µM (inactive),> 100 µM (inactive),> 100 µM (inactive),> 100 µM (inactive),> 100 µM (inactive),> 100 µM (inactive),> 100 µM (inactive),–,> 100 µM (inactive),> 100 µM (inactive),> 100 µM (inactive),> 100 µM (inactive)
COc1cc2c(cc1O)CCN[C@@]21CS[C@H]2c3c(OC(C)=O)c(C)c4c(c3C(COC1=O)N1C2C2NC(Cc3cc(C)c(OC)c(O)c32)[C@@H]1O)OCO4 (some centres not stated),< 0.01 µM (active),< 0.01 µM (active),< 0.01 µM (active),< 0.01 µM (active),< 0.01 µM (active),< 0.01 µM (active),< 0.01 µM (active),< 0.01 µM (active),< 0.01 µM (active),< 0.01 µM (active),< 0.01 µM (active),–,< 0.01 µM (active),< 0.01 µM (active),–,–,–,< 0.01 µM (active),< 0.01 µM (active),< 0.01 µM (active)
